The numbers were not newly measured in US10076471B2, “Antimicrobial denture” (University of Dammam, priority 2016, dated 2018), which cites them from elsewhere.

In this data set the test system is Candida. Conditions: against Candida.

Each structure is given as a SMILES string. Converted amounts (≈) assume the structure as drawn.

As for `COC1=CC(=O)c2ccccc2C1=O` [Lawsone methyl ether, 2-methoxy-1,4-napthoquinone], the minimal fungicidal concentration was 1.25 µg/mL (≈ 6.64 µM).
